Measurements published in patent US6875575B1, “Diagnostic methods for neoplasia” (OSI Pharmaceuticals, Inc., priority 1998, dated 2005).
“Also recorded” adds a separate entry of the source. Read-outs that look alike come from different tables or passages of the source.

Legend:
[1] = tested on: PDE peak B (novel cGMP-specific PDE); test: cGMP hydrolysis by PDE peak B from SW-480 cells; assay type: biochemical, human
[2] = tested on: neoplastic cells; test: Apoptosis induction in neoplastic cells; assay type: cell-based
[3] = tested on: HT-29 cells; test: Apoptosis and necrosis by morphology (acridine orange/ethidium bromide); assay type: cell-based; conditions: HT-29 cells treated for six days
Protocol: In one type of apoptosis assay, suspected neoplastic cells are removed from a patient. The cells are then grown in culture in the presence or absence of a cGMP-specific PDE inhibitor. Apoptotic cells are measured by combining both the attached and “floating” compartments of the cultures. The protocol for treating tumor cell cultures with PDE inhibitors and related compounds to obtain a significant amount of apoptosis has been described in the literature. (See, Piazza, G. A., et al., Cancer Research, 55:3110-16, 1995, which is incorporated herein by reference). The novel features of this assay include collecting both floating and attached cells, identification of the optimal treatment times and dose range for observing apoptosis, and identification of optimal cell culture conditions. […]
Apoptotic and necrotic cell death was determined as previously described (Duke and Cohen, In: Current Protocols in Immunology, 3.17.1-3.17.16, New York, John Wiley and Sons, 1992). […]
The diagnostic method of this invention is used to determine whether a particular neoplasia is sensitive to treatment with a cGMP-specific PDE inhibitor. The apoptosis inducing activity for a series of phosphodiesterase inhibitors, specific for different PDEs, was determined. […] Apoptosis and necrosis were determined morphologically after acridine orange and ethidium bromide labeling in accordance with the assay described, supra.

[4] = tested on: colonic polyps (dysplastic tissue); test: Apoptosis clinical study: apoptotic labeling index (ALI) in polyps; assay type: in vivo, human
Protocol: (§1) Increases in apoptosis are indicative that the neoplasia in question is sensitive to treatment with a cGMP-specific PDE inhibitor, such as sulindac sulfone (aposulind). A human in vivo aposulind-induced selective induction of apoptosis in colonic polyps is described below. Six familial polyposis patients per group were administered one of three doses of aposulind (200 mg, 400 mg which was later lowered to 200 mg for most patients in the group, or 300 mg) twice daily (BID).
Biopsies are taken from patients and used to investigate possible cellular mechanisms of apoptosis. Biopsy samples are placed in transfer media (500 ml RPMI 1640 containing 50 ml fetal calf serum, 5×10^8 units penicillin G, and 5×10^6 μg streptomycin) and kept on ice for less than 1 hour until transfer to the pathology department. Upon receipt in the pathology department, samples are removed from the transfer media and oriented mucosa up, serosa down on filter paper, placed between biopsy sponges in a tissue cassette, and fixed in 10% neutral buffered formalin for 24 hours. Samples are then transferred to 70% ethanol and embedded in paraffin. Samples are oriented perpendicularly to the tissue cassette during final orientation in paraffin for longitudinal crypt exposure and easy visualization of mucosa and the relation to the basement membrane.
Four micron sections of tissue were cut, mounted, deparaffinized, rehydrated in graded alcohol, and treated with pepsin (5 mg/ml) to digest protein in the tissue. Sections were washed and treated with 2% hydrogen peroxide (H2O2) in PBS to quench endogenous peroxidase and washed again. Tissue samples were then circled with a PAP pen (Research Products Int., 800-323-9814) to produce a hydrophobic barrier to concentrate reagents on the sample. […]
(§2) Apoptotic and nonapoptotic cells are counted on the basis of staining and morphology. An apoptotic labeling index (ALI) is calculated by dividing the total number of apoptotic cells counted by the total number of epithelial cells counted and expressing the quotient as a percentage.

[5] = tested on: normal mucosa; test: Apoptosis clinical study: ALI in normal mucosa; assay type: in vivo, human; conditions: any of the treatment groups
Protocol: as §1
Biopsies are taken from patients and used to investigate possible cellular mechanisms of apoptosis. Biopsy samples are placed in transfer media (500 ml RPMI 1640 containing 50 ml fetal calf serum, 5×10^8 units penicillin G, and 5×10^6 μg streptomycin) and kept on ice for less than 1 hour until transfer to the pathology department. Upon receipt in the pathology department, samples are removed from the transfer media and oriented mucosa up, serosa down on filter paper, placed between biopsy sponges in a tissue cassette, and fixed in 10% neutral buffered formalin for 24 hours. […]
as §2

[6] = target: T1, PDE peak A (PDE5) (Homo sapiens, UniProt O76074); test: cGMP hydrolysis by PDE peak A from SW-480 cells; assay type: biochemical
T1 construct: SW-480 cells are collected and homogenized; endogenous in cells; host or cells: SW-480 cells; supernatant fractionated on DEAE-Trisacryl M, peak A

SMILES | inhibition of peak B / new cGMP-PDE (in words) [1] | induction of apoptosis in neoplastic cells (in words) [2] | inhibition of peak A / PDE5 (in words) [6] | further results
O=C(O)C1CCN(c2nc(NCc3ccc4c(c3)OCO4)c3cc(Cl)ccc3n2)CC1 [Compound E4021] | E4021-insensitive | do not have significant apoptosis-inducing or growth-inhibiting properties | – | inhibition of peak B / new cGMP-PDE (in words) ([1]; listed as E402 1): relatively insensitive to inhibition
CC1=C(CC(=O)O)c2cc(F)ccc2/C1=C\c1ccc(S(C)(=O)=O)cc1 [Exisulind, (Z)-5-fluoro-2-methyl-1-[[4-(methylsulfonyl)phenyl]methylene]indene-3-yl acetic acid] | – | – | – | apoptotic and necrotic cell death (FIG. 1) [3]: capable of causing apoptotic cell death without inducing neoplastic cell necrosis; change in ALI following treatment ([4]; 200 mg BID group): did not demonstrate any elevation in ALI; change in ALI in polyps ([4]; 300 mg BID, six months of treatment): two fold increase in ALI; change in ALI of dysplastic tissue following drug treatment ([4]; 400/200 mg BID group when uniformly dosed at 400 mg BID): two-fold elevation in ALI; normal mucosa ALI versus baseline ALI during treatment [5]: no significant change
COc1cc(/C=C2/C(C)=C(CC(=O)NCc3ccccc3)c3cc(F)ccc32)cc(OC)c1OC [Compound E, (Z)-5-fluoro-2-methyl-1-(3,4,5-trimethoxybenzylidene)-3-indenylacetamide, N-benzyl] | competitively inhibit | induce apoptosis in neoplastic cells | competitively inhibit | –
CSc1ccc(/C=C2/C(C)=C(CC(=O)O)c3cc(F)ccc32)cc1 [Sulindac sulfide, sulindac sulfide] | inhibit | induce apoptosis in neoplastic cells | inhibit | apoptotic and necrotic cell death (FIG. 1) [3]: capable of causing apoptotic cell death without inducing neoplastic cell necrosis; inhibition of peak A / PDE5 (in words) ([6]; listed as sulindac sulfide): competitively inhibit; inhibition of peak B / new cGMP-PDE (in words) ([1]; listed as sulindac sulfide): competitively inhibit
CCCc1nn(C)c2c(=O)[nH]c(-c3cc(S(=O)(=O)N4CCN(C)CC4)ccc3OCC)nc12 [Sildenafil] | relatively insensitive to inhibition | do not have significant apoptosis-inducing or growth-inhibiting properties | inhibited activity of peak A | –
CCOC(=O)C1=C[C@]2(CC)CCCN3CCc4c(n1c1ccccc41)[C@@H]32 [Vinpocetine] | relatively insensitive | – | – | –
COc1ccc(C2CNC(=O)C2)cc1OC1CCCC1 (centres unmarked) [Rolipram] | relatively insensitive | – | – | –
CC1(C)C(=O)Nc2ccc(C3=NNC(=O)CC3)cc21 [Indolidan] | relatively insensitive | – | – | –
CCCOc1ccccc1-c1nc2nn[nH]c2c(=O)[nH]1 [Zaprinast] | relatively insensitive to inhibition; also recorded: zaprinast-insensitive | do not have significant apoptosis-inducing or growth-inhibiting properties | competitive inhibition | –
